What was measured:
Format in all cases: biochemical
[1] = biological target: T1, β-secretase (BACE) (Homo sapiens, UniProt P56817); assay: In Vitro BACE % Inhibition Assay, (Aedens)-[…]-(Dabcyl K-amide) substrate (Example 12); conditions: for % Inhibition 3 μM: 3 μM compound; for % Inhibition 3 μM / % Inhibition 10 μM: values below about 25% (including negative) within noise; for % Inhibition 10 μM: 10 μM compound
T1 construct: purchased Panvera
Method: The following reagents were used in this assay: sodium acetate, PEG8000 (Sigma), DMSO, HEPES, (Aedens)-[…]-(Dabcyl K-amide) substrate, β-secretase (BACE) (Panvera), and 96-well plate (HE microplate, Molecular Devices).
(§1) The following assay buffers were prepared and used in this assay: (1) enzyme assay buffer (0.05 M sodium acetate, pH5, 0.1% PEG8000 (w/v)), (2) substrate assay buffer (0.05 M sodium acetate, pH5), and (3) compound vehicle (30% DMSO in 50 mM HEPES, pH 7.4).
(§2) The substrate stock solution was prepared in DMSO as a 10 mg/mL solution. The substrate working solution was prepared by diluting the 10 mg/mL stock solution with substrate assay buffer to a final concentration of 300 μg/mL. The β-secretase (BACE) working solution was prepared by diluting a 0.83 mg/mL BACE stock solution with enzyme assay buffer to a final concentration of 4 μg/mL.
Test compounds were dissolved in DMSO to 10 mM. Compounds were further diluted in vehicle to various concentrations in the range of 405 μM to 4.05 μM (13.5×final compound concentration in screening plate).
The screening procedure for this assay was as follows: 15 μL of BACE working solution was pipetted into each well of a 96-well plate. To each well was then pipetted 2 μL of test compound at the selected concentration. Test compound and BACE were then mixed with a pipettor and incubated for 20 min at room temperature. To each well was then added 10 μL of the substrate working solution. The plates were then incubated for 1 hour at room temperature. The fluorescence for each well was then measured on an LJL analyst (Ex 360 nm/Em 530 nm).
The procedure for the blank (negative control) was as follows. 15 μL of assay buffer was pipetted into each well to be used as a blank control. To each well was then added 2 μL of vehicle and 10 μL of substrate working solution. The plates were then incubated for 1 hour at room temperature. The fluorescence was measured on an LJL analyst (Ex 360 nm/Em 530 nm).
The procedure for the positive control was as follows: 15 μl of BACE working solution was pipetted into each well to be used as a positive control. To each well was then pipetted 2 μL of vehicle. Vehicle and BACE were then mixed with a pipettor and incubated for 20 min at room temperature. To each well was then added 10 μL of the substrate working solution. The plates were then incubated for 1 hour at room temperature. The fluorescence (Fl) was then measured on an LJL analyst (Ex 360 nm/Em 530 nm).
For test compounds, % inhibition was determined at each concentration as follows:
% Inhibition values of less than 30% were indistinguishable from control and are listed as ≦30% in the Table below.

[2] = biological target: T1, β-secretase (BACE); assay: In Vitro BACE Assay, Ki (Example 11); conditions: Ki (μM) (Example 11), FS1 substrate 50 μM, Km 24 μM
Method: The following reagents were used in this assay: sodium acetate, PEG8000 (Sigma), DMSO, HEPES, FS1 substrate [R(AedensE)[…]-(DabcylK)R], β-secretase (BACE) (Panvera), and 96-well plate (HE microplate, Molecular Devices).
as §1
as §2, with “The FS1-substrate” for “The substrate”
Test compounds were dissolved in DMSO at 10 mM.
(§3) The procedure for this assay was as follows: 15 μL of BACE working solution was pipetted into each well of a 96-well plate. To each well was then pipetted 2 μL of test compound at the selected concentration. Test compound and BACE were then mixed with a pipettor and incubated for 20 min at room temperature. To each well was then added 10 μL of the FS1 substrate working solution. The fluorescence for each well was then measured on a Polarstar fluorometer (Ex 390 nm/Em 520 nm) for 20 min at room temperature, reading fluorescence at 1 min intervals.
as §3, with “for the positive control” for “for this assay”, “well to be used as” for “well of”, “a positive control.” for “a 96-well plate.”, “of vehicle. Vehicle” for “of test compound at the selected concentration. Test compound”, “fluorescence” for “fluorescence for each well”
For test compounds, Ki inhibition was determined as follows: For each compound concentration and positive control, rate of cleavage of substrate (Vi, where i=compound concentration in μM) was determined as Δ Fluorescence/Δ time (min). Cleavage rates (Vi) were plotted as a function of inhibitor concentration in μM [I]. The Ki was then determined by fitting the following equation to the graph of [I] vs Vi Y=aVmax/(50+24*(1+X/Ki)),

[3] = biological target: T1, β-secretase (BACE); assay: In Vitro BACE IC50 Assay, MCA-substrate (Example 13); conditions: 1 hour at room temperature
Text: The following standards are reagents were used in this assay: Sodium Citrate trisodium salt dihydrate (Sigma), Citric Acid monohydrate (Merck), PEG8000 (Sigma), MCA-substrate (Bachem), β-secretase (BACE) (Panvera), 96-well black plate (Costar (Elscolab)), StatVal (Bachem). The standard assay buffer solution prepared and used in this assay is as follows: 0.05 M, pH 5.0 mixture of sodium citrate trisodium salt dihydrate (9.56 g), citric acid monohydrate (3.68 g) and PEG8000 (0.50 g). The MCA-substrate stock solution was prepared by mixing 10 mg MCA-substrate with 5 mL DMSO for a final solution concentration of 2.0 mg/mL. […]
Briefly, the procedure for this BACE IC50 assay was as follows. […] Each well was mixed for a few seconds and the T0 measured with a Fluoroscan Ex320/Em405. The plates were then incubated for 1 hour at room temperature and the T60 measured with the Fluoroscan Ex 320 nm/Em 405 nm.
The procedure for the blank (reference well) was as follows. […] The T0 was measured with the Fluoroscan Ex 320 nm/Em 405 nm, the plate was incubated for 1 hour at room temperature and the T60 was then measured with the Fluoroscan Ex 320 nm/Em 405 nm.
The procedure for the positive control was as follows. […] The T0 was measured with the Fluoroscan Ex 320 nm/Em 405 nm, the plate was incubated for 1 hour at room temperature and the T60 was then measured with the Fluoroscan Ex 320 nm/Em 405 nm. […]

T1 sequence (P56817 46-501): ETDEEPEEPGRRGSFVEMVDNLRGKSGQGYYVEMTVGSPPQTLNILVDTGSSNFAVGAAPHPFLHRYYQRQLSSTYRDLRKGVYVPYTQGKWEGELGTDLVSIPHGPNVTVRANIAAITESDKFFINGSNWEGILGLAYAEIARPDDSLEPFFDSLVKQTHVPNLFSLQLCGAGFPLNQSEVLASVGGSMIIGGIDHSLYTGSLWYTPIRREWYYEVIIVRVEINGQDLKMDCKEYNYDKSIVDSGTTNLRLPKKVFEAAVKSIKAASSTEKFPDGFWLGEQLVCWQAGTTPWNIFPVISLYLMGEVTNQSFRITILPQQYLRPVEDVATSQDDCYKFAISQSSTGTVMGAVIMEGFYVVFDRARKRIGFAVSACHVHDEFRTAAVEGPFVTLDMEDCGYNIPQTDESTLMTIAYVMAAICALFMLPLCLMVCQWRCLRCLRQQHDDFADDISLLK

Structure (SMILES)	% Inhibition 3 μM [1]	% Inhibition 10 μM [1]	IC50 [3]	other results
CN(C(=O)CCc1cc2cc(Oc3ccccc3)ccc2nc1N)C1CCCCC1 [compound 1]	−8.5%	9%		
CN(C(=O)CCC1Cc2cc(Oc3ccccc3)ccc2N=C1N)C1CCCCC1 (stereo not shown) [compound 101]				Ki [2]: 0.1 µM; Ki [1]: 280 nM
CN(C(=O)CC[C@H]1Cc2cc(Oc3ccccc3)ccc2N=C1N)C1CCCCC1 [compound 102]			170 nM	
CN(C(=O)CC[C@@H]1Cc2cc(Oc3ccccc3)ccc2N=C1N)C1CCCCC1 [compound 103]			220 nM	
CC(C)(C)OC(=O)CCc1cc2cc(Oc3ccccc3)ccc2nc1N [compound 501]	12%	−36%		
Nc1nc2ccc(Oc3ccccc3)cc2cc1CCC(=O)O [compound 502]	−8%	−16%		
